Assay results from US11834463B2, “High affinity macrocyclic FKB51-inhibitors for treatment of psychiatric disorders” (priority 2020, dated 2023).
Values joined by “and” are separate entries in the source; they are usually repeats but may differ in a detail not shown here. Equal values may be shown once. Read-outs that look alike come from different tables or passages of the source.

Experiments:
[1] = not given; remark: listed apart in the source
FKBP51FK1 = biological target: T1, FKBP51FK1 (Homo sapiens, UniProt Q13451); test: biochemical
T1 sequence (Q13451 42-130 limits assumed): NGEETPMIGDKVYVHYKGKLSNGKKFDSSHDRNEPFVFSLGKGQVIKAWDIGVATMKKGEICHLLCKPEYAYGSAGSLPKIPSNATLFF
Protocol: All macrocyclic compounds were tested in a competitive fluorescence polarization assay for binding towards FKBP51 as well as the homologs FKBP12, FKBP12.6 and FKBP52 (Table 1).
Example 8: […] of the Macrocyclic FKBP51 Ligands by SPPS

With `COc1ccc(CC[C@@H]2OC(=O)[C@H]3CCCCN3C(=O)[C@@H](C3CCCCC3)c3cc(OC)c(OC)c(c3)OCCCOCC=CCOc3cccc2c3)cc1OC` the ring closure, yield after HPLC (from C=CCOCCCOc1cc([C@@H](C(=O)N2CCCC[C@@H]2C(=O)O[C@@H](CCc2ccc(OC)c(OC)c2)c2cccc(OCC=C)c2)C2CCCCC2)cc(OC)c1OC, rcm bond, 23-membered ring, Grubbs II (0.1 equiv)/1,4-benzoquinone, DCM, 1.0 mM) was 58% and 33%.

With `COc1ccc(CC[C@@H]2OC(=O)[C@H]3CCCCN3C(=O)[C@@H](C3CCCCC3)c3cc(OC)c(OC)c(c3)OCCCOc3cccc2c3)cc1OC` the ring closure, yield after HPLC (from COc1ccc(CC[C@H](OC(=O)[C@H]2CCCCN2C(=O)[C@H](c2cc(OC)c(OC)c(OCCCI)c2)C2CCCCC2)c2cccc(O)c2)cc1OC, ether bond, 18-membered ring, K2CO3 (2 equiv), MeCN, 0.3 mM) was 26%.

Work on `COc1ccc(CC[C@@H]2OC(=O)[C@H]3CCCCN3C(=O)[C@@H](C3CCCCC3)c3cc(OC)c(OC)c(c3)OCCOc3cccc2c3)cc1OC` yielded a ring closure, yield after HPLC (from COc1ccc(CC[C@H](OC(=O)[C@H]2CCCCN2C(=O)[C@H](c2cc(OC)c(OC)c(OCCI)c2)C2CCCCC2)c2cccc(O)c2)cc1OC, ether bond, 17-membered ring, K2CO3 (2 equiv), MeCN, 1.0 mM) of 42%.

With `COc1ccc(CC[C@@H]2OC(=O)[C@H]3CCCCN3C(=O)[C@@H](C3CCCCC3)c3cc(OC)c(c(OC)c3)OCCCOc3cccc2c3)cc1OC` the ring closure, isolated yield ([1]; from COc1ccc(CC[C@H](OC(=O)[C@H]2CCCCN2C(=O)[C@H](c2cc(OC)c(OCCCI)c(OC)c2)C2CCCCC2)c2cccc(O)c2)cc1OC, ether bond, 19-membered ring, K2CO3 (2 equiv), MeCN, 0.5 mM) was 81%.

`COc1ccc(CC[C@H]2OC(=O)[C@@H]3CCCCN3C(=O)[C@@H](C3CCCCC3)C/C=C/COCCOc3cccc2c3)cc1OC` showed a ring closure, isolated yield ([1]; from C=CCOCCOc1cccc([C@H](CCc2ccc(OC)c(OC)c2)OC(=O)[C@H]2CCCCN2C(=O)[C@H](CC=C)C2CCCCC2)c1, rcm bond, 18-membered ring, Grubbs II (0.1 eq), DCM, 0.5 mM, 30.0 °C, 2.5 h) of 92%.

For `COc1ccc(CC[C@H]2OC(=O)[C@@H]3CCCCN3C(=O)[C@@H](C3CCCCC3)NC(=O)C(C)(C)NC(=O)COc3cc(O)cc2c3)cc1OC` [Compound 103, (2R,5S,12R)-12-cyclohexyl-2-[2-(3,4-dimethoxyphenyl)ethyl]-22-hydroxy-15,15-dimethyl-3,19-dioxa-10,13,16-triazatricyclo[18.3.1.0^5,10]tetracosa-1(24),20,22-triene-4,11,14,17-tetrone], the ring closure, isolated yield ([1]; from H-Aib-dChg-Pip-[O-(R)-CH(CH2CH2-3,4-dimethoxyphenyl)-C6H3(O-resin)-OCH2CO]-OH?, amide bond, 17-membered ring, resin, with chain assembly) was 20%, the “affinity (in words)” value (FKBP51FK1) was “bound similarly to the glycine derivative 83” and the Ki (FKBP51FK1; FKBP51FK1 Ki [μM], Table 2, [a] standard error from three, [c] error from two independent measurements) was 0.37 µM.
